Results: patent publication US8030478B2, “Method for nucleic acid replication and novel artificial base pairs” (priority 2005, dated 2011)
Read-outs that look alike come from different tables or passages of the source.

Key:
[1] = biological target: T1, Klenow fragment lacking exonuclease activity (KF exo−) (Escherichia coli, UniProt P00582, D355A/E357A); format: biochemical, E. coli; conditions: for Efficiency (Vmax/KM) / Km / Vmax: 37° C.
T1 construct: enzyme solution of the Klenow fragment lacking exonuclease activity (KF exo^−, Amersham USB); purchased Amersham USB
T1 sequence (P00582 324-928 D355A/E357A): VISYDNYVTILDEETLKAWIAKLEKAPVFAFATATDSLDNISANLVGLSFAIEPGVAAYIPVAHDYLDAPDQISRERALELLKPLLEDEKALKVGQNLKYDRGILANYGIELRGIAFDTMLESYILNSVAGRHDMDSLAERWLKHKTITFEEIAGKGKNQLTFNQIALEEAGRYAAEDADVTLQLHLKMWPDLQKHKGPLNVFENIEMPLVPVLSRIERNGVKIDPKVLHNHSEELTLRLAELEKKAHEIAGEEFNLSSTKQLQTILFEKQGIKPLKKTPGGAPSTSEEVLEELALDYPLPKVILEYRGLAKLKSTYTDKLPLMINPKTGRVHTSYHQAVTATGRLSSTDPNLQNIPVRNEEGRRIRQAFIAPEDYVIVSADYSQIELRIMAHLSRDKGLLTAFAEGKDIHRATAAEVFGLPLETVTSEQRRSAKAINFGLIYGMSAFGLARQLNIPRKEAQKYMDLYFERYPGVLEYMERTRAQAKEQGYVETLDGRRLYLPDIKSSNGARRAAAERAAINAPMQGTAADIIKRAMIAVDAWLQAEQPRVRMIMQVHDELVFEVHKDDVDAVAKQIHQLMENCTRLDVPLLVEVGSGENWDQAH
Description: The single nucleotide insertion experiment was performed as described in documents (Non-patent Documents 30-32). A primer (20-mer) labeled with 6-carboxylfluorescein at the 5′-end was annealed with template DNA (35-mer) by heating at 95° C. and slow cooling to 4° C. in 100 mM Tris-HCl (pH 7.5) buffer containing 20 mM MgCl2, 2 mM DTT and 0.1 mg/ml bovine serum albumin. The primer-template duplex solution (10 μM, 5 μl) was mixed with 2 μl enzyme solution of the Klenow fragment lacking exonuclease activity (KF exo^−, Amersham USB). After the mixture was incubated for 2 minutes, each dNTP solution (3 μl) was added to this solution to start the reaction at 37° C. The amount of the enzyme used (5-50 nM), the reaction time (1-35 minutes) and the gradient concentration of each dNTP (0.3-1500 μM) were adjusted to ensure conditions giving 25% or less products. The reaction was stopped with 10 μl stop solution (95% formamide and 20 mM EDTA), and the mixture was immediately heated at 75° C. for 3 minutes. The diluted products were analyzed in an automated ABI377 DNA sequencer equipped with GeneScan software (version 3.0) (Non-patent Document 32). The relative velocity (v0) was calculated by dividing the extent of reaction by the reaction time, and then normalized to the enzyme concentration (20 nM) for the various enzyme concentrations used. Kinetic parameters (KM and Vmax) were obtained from Hanes-Woolf plots of [dNTP]/v0 against [dNTP].
Each parameter was averaged from 3 to 8 data sets.

[2] = biological target: Klenow fragment (KF exo+ / KF exo−) (Escherichia coli, UniProt P00582); conditions: dPaTP and natural substrates in the presence of the named substrate (0.5 or 1 molar equivalent of dPaTP); FIG. 2d
Klenow fragment (KF exo+ / KF exo−) (Escherichia coli, UniProt P00582), sequence (P00582 324-928): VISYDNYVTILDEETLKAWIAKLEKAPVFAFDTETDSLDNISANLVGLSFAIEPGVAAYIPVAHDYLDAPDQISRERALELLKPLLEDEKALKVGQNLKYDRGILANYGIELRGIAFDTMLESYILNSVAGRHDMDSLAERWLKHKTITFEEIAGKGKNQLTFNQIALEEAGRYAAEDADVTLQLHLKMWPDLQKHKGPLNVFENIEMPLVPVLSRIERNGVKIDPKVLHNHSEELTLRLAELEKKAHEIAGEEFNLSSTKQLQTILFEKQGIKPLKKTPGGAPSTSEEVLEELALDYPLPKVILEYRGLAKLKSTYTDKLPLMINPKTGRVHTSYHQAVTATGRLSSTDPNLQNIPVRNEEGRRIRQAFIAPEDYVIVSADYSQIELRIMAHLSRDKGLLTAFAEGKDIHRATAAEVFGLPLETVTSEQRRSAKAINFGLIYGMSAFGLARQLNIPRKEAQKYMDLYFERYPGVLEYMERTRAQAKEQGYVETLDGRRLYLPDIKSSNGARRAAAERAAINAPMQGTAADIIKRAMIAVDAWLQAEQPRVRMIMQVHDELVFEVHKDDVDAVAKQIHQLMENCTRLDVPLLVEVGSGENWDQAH
Description: (§1) [FIG. 2d] FIGS. 2a to 2e show single nucleotide insertion and primer extension experiments with an unnatural base pair system based on Ds-Pa base pairing.
(§2) [FIG. 2e] FIGS. 2a to 2e show single nucleotide insertion and primer extension experiments with an unnatural base pair system based on Ds-Pa base pairing.
(§3) A 5′-^32P-labeled primer (23-mer) and template DNA (35-mer) were annealed into duplex form in 20 mM Tris-HCl (pH 7.5) buffer containing 14 mM MgCl2 and 0.2 mM DTT. The duplex solution (400 nM, 5 μl) was mixed with each 5× dNTP solution (2 μl) on ice, followed by addition of 3 μl enzyme solution containing KF exo^− (1 unit) or KF exo^+ (1 unit) (TAKARA) to start the reaction. After the reaction solution was incubated at 37° C. for 3 or 5 minutes, a dye solution (10 μl) containing 89 mM Tris-borate, 2 mM EDTA, 10 M urea and 0.05% BPB was added to stop the reaction. […] The products on the gel were analyzed with a bio-imaging analyzer (model BAS2500, Fuji).

[3] = tested on: Klenow fragment (KF exo+ / KF exo−); conditions: dDsTPN opposite template Pa, dATPN opposite template T; FIG. 2e, Lanes 2 and 14
Description: as §1, §2, §3

[4] = biological target: T7 RNA polymerase (Escherichia phage T7, UniProt P00573); conditions: 1 mM substrate, 1 mM NTPs, template DNA containing Ds, 37° C., 3 hours; FIG. 49
T7 RNA polymerase, sequence (P00573 whole entry): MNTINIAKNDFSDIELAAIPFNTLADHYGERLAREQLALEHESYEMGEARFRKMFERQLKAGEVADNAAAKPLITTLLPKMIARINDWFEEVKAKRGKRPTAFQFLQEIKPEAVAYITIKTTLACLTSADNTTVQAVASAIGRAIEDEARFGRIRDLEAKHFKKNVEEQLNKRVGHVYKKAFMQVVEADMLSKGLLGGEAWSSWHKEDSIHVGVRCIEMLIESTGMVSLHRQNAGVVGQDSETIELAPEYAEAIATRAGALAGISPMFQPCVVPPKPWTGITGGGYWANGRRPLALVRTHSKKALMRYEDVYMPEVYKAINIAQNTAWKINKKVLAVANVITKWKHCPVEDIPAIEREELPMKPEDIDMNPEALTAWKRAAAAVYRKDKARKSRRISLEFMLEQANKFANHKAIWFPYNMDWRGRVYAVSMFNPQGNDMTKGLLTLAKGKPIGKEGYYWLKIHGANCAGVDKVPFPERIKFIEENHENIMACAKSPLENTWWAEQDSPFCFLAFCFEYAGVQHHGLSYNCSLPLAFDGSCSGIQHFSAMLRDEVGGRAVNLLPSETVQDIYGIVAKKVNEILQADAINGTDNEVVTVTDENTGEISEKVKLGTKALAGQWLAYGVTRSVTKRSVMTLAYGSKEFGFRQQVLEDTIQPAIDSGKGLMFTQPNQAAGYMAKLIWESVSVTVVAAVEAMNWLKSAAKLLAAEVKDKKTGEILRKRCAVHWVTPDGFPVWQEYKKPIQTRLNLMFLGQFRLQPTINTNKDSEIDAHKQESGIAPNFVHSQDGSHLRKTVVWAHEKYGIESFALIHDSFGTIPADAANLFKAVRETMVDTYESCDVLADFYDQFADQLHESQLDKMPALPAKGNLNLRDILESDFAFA
Description: More specifically, experimental procedures as shown below were used. […] After reaction at 37° C. for 3 hours, 10 M urea (20 μL) was added to this solution to stop the reaction.

[5] = biological target: Klenow fragment lacking 3′-5′ exonuclease activity (Escherichia coli, UniProt P00582, D355A/E357A); conditions: template DNA (55-mer) containing Ds, 10 μM substrate, 37° C., 5 minutes; FIG. 48
Klenow fragment lacking 3′-5′ exonuclease activity, sequence (P00582 324-928 D355A/E357A): as the sequence (P00582 324-928 D355A/E357A) above
Description: More specifically, experimental procedures as shown below were used. […] The reaction was performed using 200 nM Template-Primer, 100 μM or 200 μM dNTPs (N=A, G, C, T), 10 μM NH2-hx-dPnTP or FAM-hx-dPnTP, and 0.1 U/μl Klenow fragment (GE Health Care) in 50 mM Tris-HCl (pH 7.5), 10 mM MgCl2, 1 mM DTT, 0.05 mg/ml BSA. After reaction at 37° C. for 5 minutes, 10 M urea (20 μl) was added to this solution to stop the reaction. […] Bands of the reaction products were detected with a fluorescence image analyzer (Molecular Imager, Bio-Rad, FAM detection mode).

## NP(=O)(O)OP(=O)(O)OP(=O)(O)OC[C@H]1O[C@@H](n2cnc3c(-c4cccs4)ccnc32)C[C@@H]1O [dDsTPN, 7-(2-Thienyl)-3-(2-deoxy-β-D-ribofuranosyl)-3H-imidazo[4,5-b]pyridine 5′-γ-amidotriphosphate]
[1]; KF exo−, template Pa
  incorporation efficiency opposite template Pa relative to that of dATPN opposite template Pa: 37 fold
[1]; template (N) = A, temp35N-2
  Efficiency (Vmax/KM): 1.9 × 10^3 % min^−1M^−1
  Km: 270 µM
  Vmax: 0.52 % min^−1
[1]; template (N) = C, temp35N-2
  Efficiency (Vmax/KM): 1.5 × 10^3 % min^−1M^−1
  Km: 440 µM
  Vmax: 0.64 % min^−1
[1]; template (N) = Ds, temp35N-1
  Efficiency (Vmax/KM): 9.9 × 10^3 % min^−1M^−1
  Km: 79 µM
  Vmax: 0.78 % min^−1
[1]; template (N) = G, temp35N-2
  Efficiency (Vmax/KM): 1.9 × 10^3 % min^−1M^−1
  Km: 300 µM
  Vmax: 0.58 % min^−1
[1]; template (N) = Pa, temp35N-2
  Efficiency (Vmax/KM): 6.7 × 10^4 % min^−1M^−1
  Km: 180 µM
  Vmax: 12 % min^−1
[1]; template (N) = Pa′, temp35N-2
  Efficiency (Vmax/KM): 5.7 × 10^4 % min^−1M^−1
  Km: 230 µM
  Vmax: 13 % min^−1
[1]; template (N) = T, temp35N-2
  Efficiency (Vmax/KM): 3.5 × 10^3 % min^−1M^−1
  Km: 480 µM
  Vmax: 1.7 % min^−1
[2]
  primer extension with KF exo+ on Ds-containing template: proceeded without being inhibited
[3]
  primer extension after incorporation of the substrate: proceeded efficiently

## O=Cc1cc(C#CCNC(=O)CCCCCNC(=O)c2ccc3c(c2)C(=O)OC32c3ccc(O)cc3Oc3cc(O)ccc32)cn1[C@@H]1O[C@H](COP(=O)(O)OP(=O)(O)OP(=O)(O)O)[C@@H](O)[C@H]1O [FAM-hx-PaTP, 1-(β-D-Ribofuranosyl)-4-[3-(6-(fluorescein-5-carboxamido)hexanamido)-1-propynyl]pyrrole-2-carbaldehyde 5′-triphosphate]
[4]
  transcription efficiency compared to control with natural substrates alone: 14%

## NCCCCCC(=O)NCC#Cc1cc([N+](=O)[O-])n([C@H]2C[C@H](O)[C@@H](COP(=O)(O)OP(=O)(O)OP(=O)(O)O)O2)c1 [NH2-hx-dPnTP]
[5]
  incorporation into DNA through primer extension: incorporated into DNA opposite Ds in the template DNA

## CN(C)c1ccc2c(c1)Oc1cc(N(C)C)ccc1C21OC(=O)c2cc(C(=O)NCCCCCC(=O)NCC#Cc3cc(C=O)n([C@@H]4O[C@H](COP(=O)(O)OP(=O)(O)OP(=O)(O)O)[C@@H](O)[C@H]4O)c3)ccc21 [TAMRA-hx-PaTP, 1-(β-D-Ribofuranosyl)-4-[3-(6-(tetramethylrhodamine-5-carboxamido)hexanamido)-1-propynyl]pyrrole-2-carbaldehyde 5′-triphosphate]
[4]
  transcription efficiency compared to control with natural substrates alone: 10%

## O=C(CCCCCNC(=O)c1ccc2c(c1)C(=O)OC21c2ccc(O)cc2Oc2cc(O)ccc21)NCC#Cc1cc([N+](=O)[O-])n([C@H]2C[C@H](O)[C@@H](COP(=O)(O)OP(=O)(O)OP(=O)(O)O)O2)c1 [FAM-hx-dPnTP, 1-(2-Deoxy-β-D-ribofuranosyl)-4-[3-[6-(fluorescein-5-carboxamido)hexanamido]-1-propynyl]-2-nitropyrrole 5′-triphosphate]
[5]
  incorporation into DNA through primer extension: incorporated into DNA opposite Ds in the template DNA
